Values after ≈ are worked out from the molar mass of the structure shown. Read-outs that look alike come from different tables or passages of the source.
How the values were obtained:
[1] = tested on: promastigotes of Leishmania major (strain MHOM/IL/81/Friedlin); assay: In vitro toxicity assay (resazurin), L. major promastigotes; assay type: cell-based; settings: 72 h; for GI50: read-out: L. major GI50; for MIC: read-out: L. major MIC
Procedure: (§1) Bloodstream forms of Trypanosoma brucei (clone 427-221a) and human myeloid leukaemia HL-60 cells were maintained in Baltz medium supplemented with 16.7% heat-inactivated bovine serum in a humidified atmosphere containing 5% CO2 at 37 °C. Promastigotes of Leishmania major (strain MHOM/IL/81/Friedlin [16]) were cultured in Schneider’s insect medium supplemented with 10% heat-inactivated foetal bovine serum in a humidified atmosphere containing 5% CO2 at 27 °C.
(§2) Toxicity assays were carried out as previously described with some modifications. In brief, cells were seeded in 96-well plates in a final volume of 200 μL of appropriate medium containing various concentrations of test compounds (tenfold dilution from 100 µM to 1 nM) and 1% DMSO. Wells just containing medium and 1% DMSO served as controls. The initial cell densities were 1 × 10^4/mL for T. brucei bloodstream forms, 2.5 × 10^5/mL for L. major promastigotes, and 5 × 10^4/mL for HL-60 cells. After 24 h incubation, 20 µL of a 0.5 mM resazurin solution prepared in PBS was added and the cells were incubated for a further 48 h. Thereafter, the absorbance of wells was read on a BioTek ELx808 microplate reader using a test wavelength of 570 nm and a reference wavelength of 630 nm. The 50% growth inhibition (GI50) value, i.e., the concentration of a compound necessary to reduce the growth rate of cells by 50% compared to the control, was determined by linear interpolation. The minimum inhibitory concentration (MIC) values, i.e. the concentration of a compound at which all trypanosomes and human cells were killed, was determined microscopically.

[2] = In vitro toxicity assay (resazurin), HL-60 cells; assay type: cell-based, human; settings: human
Procedure: as §1, §2

[3] = tested on: human myeloid leukaemia HL-60 cells; assay: In vitro toxicity assay (resazurin), HL-60 cells; assay type: cell-based; settings: 72 h; for GI50: 50% growth inhibition, resazurin
Procedure: as §1, §2

[4] = tested on: intracellular L. major amastigotes in J774 macrophages; assay: Intra-macrophages amastigote assay; assay type: cell-based, Leishmania major; settings: for Killing of intracellular amastigotes: 72 h
Procedure: The intra-macrophages amastigote assay was performed as previously described with some modification. In brief, 1 mL of J774 cells (7 × 10^4) suspended in RPMI supplemented with 10% foetal bovine serum were pipetted into wells of a 24 well plate containing sterile glass coverslips. Subsequently, cells were incubated overnight at 37 °C and 5% CO2 in a humidified incubator. The next day, metacyclic L. major promastigotes (MOI 20:1) were added and the plates incubated for 24 h at 34 °C and 5% CO2 in a humidified incubator. After 24 h incubation, cells were washed 4 times with PBS to remove parasites that had not invaded any macrophage. Then, cells were incubated with compound 1 at the following concentrations: 10, 2.5, 1.25, 0.625 and 0.1 µM. Amphotericin B (0.1 µM) was used as a positive control and no drug treatment as a negative control. After 72 h of drug incubation, cells were gently washed 4 times with PBS and fixed with 4% paraformaldehyde for 30 min. Thereafter, cells were washed once with water and stained with Giemsa for 40 min. Cells on coverslips were then destained using the acetone-xylene protocol as follows: first, pure acetone; second, pure acetone; third, acetone/xylene 9:1; forth, acetone/xylene 7:3; fifth, acetone/xylene 3:7; sixth, pure xylene. Finally, coverslips were mounted on slides with Entellan new mounting medium. Infection index (parasites/cell) were determined by counting approximately 300 cells per coverslips using an Olympus BX50 microscope with a 100 × N.A. 1.35 oil immersion objective.
Fig. 2 Effect of compound 1 on intracellular L. major amastigotes. After infection of J774 macrophages with metacyclic promastigotes of L. major, cells were treated with compound 1 or amphotericin B (AM) or with DMSO alone (DMSO) 24 h post infection. After 72 h incubation, coverslips with cells were washed with PBS, fixed with paraformaldehyde and stained with Giemsa. Subsequently, cells were destained and coverslips mounted, and the infection index determined. Mean values ± SD of three independent experiments run in triplicate are shown

[5] = tested on: bloodstream forms of Trypanosoma brucei (clone 427-221a); assay: In vitro toxicity assay (resazurin), T. brucei bloodstream forms; assay type: cell-based; settings: for GI50: read-out: T. brucei GI50; for MIC: read-out: T. brucei MIC
Procedure: as §1, §2

[6] = tested on: immortalised human embryonic kidney cell line HEK239T; design: method as in PMID 28917086; settings: cited from earlier work
[7] = tested on: bloodstream forms of T. brucei rhodesiense; design: method as in PMID 17253841; settings: cited from earlier work
[8] = tested on: Axenic grown amastigotes of L. donovani; design: method as in PMID 17253841; settings: cited from earlier work
[9] = Leishmania major, promastigotes, 50% growth inhibition, resazurin
[10] = Leishmania major, promastigotes, determined microscopically
[11] = Trypanosoma brucei, 72 h, bloodstream forms, 50% growth inhibition, resazurin, 72 h
[12] = Trypanosoma brucei, bloodstream forms, concentration at which all cells were killed, determined microscopically, 72 h
[13] = HL-60 cells (human myeloid leukaemia), cytotoxicity, 50% growth inhibition, resazurin, 72 h, read-out: HL-60 cells GI50
[14] = cytotoxicity, determined microscopically
[15] = cytotoxicity, 50% growth inhibition, resazurin, 72 h, read-out: HL-60 cells GI50

| SMILES | GI50 [1, 9] | MIC [1, 10] | GI50 [5, 11] | MIC [5, 12] | GI50 at 72 h [2, 13] | HL-60 cells MIC [3, 14] | GI50 ([5]; Trypanosoma brucei, 72 h) | MIC ([5]; Trypanosoma brucei, 72 h) | GI50 ([1]; Leishmania major) | MIC ([1]; Leishmania major) | GI50 at 72 h [2, 15] | other results |
| --- | --- | --- | --- | --- | --- | --- | --- | --- | --- | --- | --- | --- |
| C[C@@H]1[C@H](O)[C@@H](C)/C=C/C=C/C=C/C=C/C=C/C=C/C=C/[C@H](O[C@@H]2O[C@H](C)[C@@H](O)[C@H](N)[C@@H]2O)C[C@@H]2O[C@](O)(C[C@@H](O)C[C@@H](O)[C@H](O)CC[C@@H](O)C[C@@H](O)CC(=O)O[C@H]1C)C[C@H](O)[C@H]2C(=O)O [Amphotericin B, reference compound] | 0.036 ± 0.001 µM | 0.1 µM (≈ 0.0924 µg/mL) | – | – | – | – | – | – | – | – | – | GI50 at 72 h ([2]; HL-60 cells GI50): 50.7 ± 9.3 µM; HL-60 cells MIC ([3]; human): > 100 µM; Killing of intracellular amastigotes ([4]; at 0.1 μM, positive control): completely destroy |
| CC1(C)C(=O)C=C[C@]2(C)C3C(=O)C[C@@]4(C)[C@H](c5ccoc5)OC(=O)[C@H]5O[C@]54[C@]3(C)CC[C@@H]12 (stereo partly shown) [Compound 1, kotschyienone A] | 2 to 3 µM | 10 µM (≈ 4.39 µg/mL) | 2 to 3 µM | 10 µM (≈ 4.39 µg/mL) | 31.5 to 46.2 µM | 100 µM | – | – | – | – | – | GI50 ([5]; Trypanosoma brucei, bloodstream forms, same value as 2.48 μM in mass units): 1.09 µg/mL; GI50 ([5]; bloodstream forms, 50% growth inhibition, resazurin, 72 h): 2.48 ± 0.12 µM; GI50 ([1]; promastigotes, 50% growth inhibition, resazurin): 2.86 ± 0.89 µM; GI50 ([3]; cytotoxicity): 31.5 ± 3.7 µM; GI50 ([4]; Leishmania major, J774, same value as 1.51 μM in mass units): 0.66 µg/mL (≈ 1.51 µM); Killing of intracellular amastigotes ([4]; at 10 μM): killed completely; ED50 (50% effective dose), reduction of parasite burden of infected macrophages ([4]; intracellular amastigotes in J774 macrophages, 72 h drug incubation, infection index): 1.51 µM; cytotoxicity for HEK239T [6]: > 200 µg/mL |
| CC1(C)C(=O)C=C[C@]2(C)C3C(=O)C[C@@]4(C)[C@H](c5ccoc5)OC(=O)[C@H]5O[C@]54[C@]3(C)[C@H](O)C[C@@H]12 (stereo partly shown) [Compound 2, kotschyienone B] | 14.9 ± 5.9 µM | 100 µM (≈ 45.5 µg/mL) | 14.2 ± 2.9 µM | 100 µM (≈ 45.5 µg/mL) | > 100 µM | > 100 µM | – | – | – | – | – | – |
| CC1(C)C(=O)C=C[C@]2(C)C3CC[C@@]4(C)[C@H](c5ccoc5)OC(=O)[C@H]5O[C@]54[C@]3(C)[C@H](O)C[C@@H]12 (stereo partly shown) [Compound 3, 7-deacetylgedunin] | – | – | – | – | – | 100 µM | 14.5 ± 3.2 µM | 100 µM (≈ 44.1 µg/mL) | 11.6 ± 1.6 µM | 100 µM (≈ 44.1 µg/mL) | 31.5 to 46.2 µM | GI50 ([3]; cytotoxicity): 46.2 ± 6.7 µM; GI50 [7]: 3.4 µM; GI50 [8]: ~1 µM |
| CC1(C)C(=O)C=C[C@]2(C)C3CC[C@@]4(C)[C@H](c5ccoc5)OC(=O)[C@H]5O[C@]54[C@]3(C)C(=O)C[C@@H]12 (stereo partly shown) [Compound 4, 7-deacetyl-7-oxogedunin] | – | – | – | – | – | > 100 µM | 3.18 ± 0.48 µM | > 100 µM | 7.63 ± 2.78 µM | > 100 µM | > 100 µM | GI50 [7]: 3.4 µM; GI50 [8]: ~1 µM |
| C=C1[C@@H]([C@@]2(C)C=CC(=O)C(C)(C)[C@@H]2CC(=O)OC)CC[C@@]2(C)[C@H](c3ccoc3)OC(=O)[C@H]3O[C@]132 [Compound 5, andirobin] | > 100 µM | > 100 µM | 11.5 ± 6.3 µM | > 100 µM | > 100 µM | > 100 µM | – | – | – | – | – | – |
| C=C1[C@@H]2CC[C@@]3(C)[C@H](c4ccoc4)OC(=O)C[C@]13O[C@H]1CC(=O)C(C)(C)[C@H](CC(=O)OC)[C@]12C [Compound 6, methyl angolensate] | – | – | – | – | – | > 100 µM | 6.04 ± 2.25 µM | > 100 µM | > 100 µM | > 100 µM | > 100 µM | – |
| Cc1ccc(C(=O)Nc2ccc(S(=O)(=O)O)c3cc(S(=O)(=O)O)cc(S(=O)(=O)O)c23)cc1NC(=O)c1cccc(NC(=O)Nc2cccc(C(=O)Nc3cc(C(=O)Nc4ccc(S(=O)(=O)O)c5cc(S(=O)(=O)O)cc(S(=O)(=O)O)c45)ccc3C)c2)c1 [Suramin, reference compound] | – | – | 0.042 ± 0.004 µM | 1 µM (≈ 1.3 µg/mL) | – | – | – | – | – | – | – | GI50 at 72 h ([2]; HL-60 cells GI50): > 100 µM; HL-60 cells MIC ([3]; human): > 100 µM |
